The record followed here is paper PMC9501633, “Synthesis, Characterisation and Mechanism of Action of Anticancer 3-Fluoroazetidin-2-ones” (Pharmaceuticals, 2022).

Data set [1] relates to MCF-7 human breast cancer cells. Briefly: AlamarBlue cell viability assay. Format: cell-based. To be noted: for viability at 1 µM / viability at 10 µM / IC50: Homo sapiens, MCF7, 72 h; for viability at 1 µM: MCF-7, 1 μM; for viability at 1 µM / viability at 10 µM: read-out: viable cells remaining; for viability at 10 µM: MCF-7, 10 μM; for IC50: MCF-7, 72 h. The procedure:
The antiproliferative potential of the synthesised 3-fluoro β-lactams 26–35 and 3,3-difluoro β-lactams 36–45 was evaluated in MCF-7 human breast cancer cells using the AlamarBlue assay, with CA-4 as reference compound (Figure 3). […] The results for the preliminary in vitro antiproliferative screen for 3-fluoro β-lactam compounds (26–29), which contain different substituents at the para position in the B ring, are presented in Figure 3A.
Cells were seeded at a density of 5 × 10^3 cells/well (MCF-7 and MDA-MB-231) and 1 × 10^4 cells/well (HEK-293T) in 96-well plates (200 μL per well). After 24 h, cells were then treated with medium alone, with vehicle (1% ethanol (v/v)) or with CA-4 or β-lactam compounds at 1 μM and 10 μM concentrations. […] Cell proliferation for MCF-7 cells was analysed with the AlamarBlue assay (Invitrogen Corp.) as previously described by us. After 72 h, AlamarBlue (10% (v/v)) was added to each well, and plates were incubated for 3–5 h at 37 °C in the dark. Fluorescence results were obtained with a 96-well fluorimeter with excitation at 530 nm and emission at 590 nm with results recorded as percentage viability relative to vehicle control (100%). Dose–response curves were obtained and IC50 values (concentration of drug resulting in 50% reduction in cell survival) were calculated using Prism (GraphPad Software, Inc., La Jolla, CA, USA).
Figure 3 Preliminary cell viability data for 3-fluoro and 3,3-difluoro β-lactam compounds. (A) 3-Fluoro β-lactam compounds containing different para-substituent ring B 26–29; 3-fluoro β-lactam compounds containing different meta-substituent ring B 30, 32–35; (B) 3-difluoro β-lactam compounds containing different para-substituent ring B 36–39; 3-difluoro β-lactam compounds containing different meta-substituent ring B 40, 42–45 in MCF-7 breast cancer cells. Cell proliferation of MCF-7 cells was determined with an AlamarBlue assay (seeding density […] for 96-well plates). Compound concentrations of either 10 μM or 1 μM for 72 h were used to treat the cells with control wells containing vehicle ethanol (1% v/v) and CA-4 (10 μM and 1 μM). The mean value for three experiments is shown with the ± S.E.M. for three independent experiments.
For orientation: Alamar Blue is a resazurin reagent that responds to reducing activity.

In the next data set the test system is SW-480 cells. Briefly: AlamarBlue cell viability assay. Particulars: SW-480, 10 μM, 72 h. The format is cell-based. The procedure: Compound # (Treatment Concentration µM) […]
different para-substituent ring B 26-29; 3-fluoro β-lactam compounds containing different meta-substituent ring B 30, 33-35; (B) 3,3-difluoro β-lactam compounds containing different para-substituent ring B 36-39; 3,3-difluoro β-lactam compounds containing different meta-substituent […]
ring B 40, 42-45 in SW-480 cancer cells.
Cell proliferation of MCF-7 cells was determined with an alamarBlue assay (seeding density […]
Compound concentrations of either 10 μM or 1 μM for 72 h were used to treat the cells with control wells containing vehicle ethanol (1%

Data set [2] can be described thus: Stability in phosphate buffers (HPLC). The format is physicochemical. The procedure: (§1) The β-lactam ring is known to undergo hydrolysis/degradation depending on the substituent type on the ring. For example, degradation of monocyclic β-lactam antibiotic aztreonam increased with elevated humidity, temperature and acidic pH buffer. Ezetimibe, a monocyclic β-lactam drug used to reduce blood cholesterol, undergoes degradation and hydrolysis more rapidly in neutral and basic pH conditions than in acidic pH [71]. The stability of representative compounds 33 and 39 was also determined at pH 4, pH 7.4 (plasma) and pH 9 (intestine) by HPLC. […] The electron-withdrawing effect of the 3-fluoro substituent may result in decreasing stability of the β-lactam ring in response to acid hydrolysis.
(§2) The stability study for compounds 33 and 39 was performed using analytical HPLC (Symmetry column (C18, […], 4.6 × 150 mm), dual wavelength absorbance detector (Waters 2487), binary HPLC pump (Waters 1525) and autosampler (Waters 717 plus)) with mobile phase acetonitrile (70%)/water (30%), flow rate 1 mL/min over 15 min and detection at λ 254 nm. Stock solutions of compounds 33 and 39 (1 mg/mL in mobile phase) were used. Dilutions of 0.5 mg/mL, 0.25 mg/mL, 0.125 mg/mL, 0.0625 mg/mL, 0.03125 mg/mL, 0.015625 mg/mL and 0.0078 mg/mL were prepared for the calibration curve. (i) Stability of 33 and 39 in phosphate buffers: The phosphate buffers were prepared in accordance with the British Pharmacopoeia 2020 at pH values 4, 7.4 and 9. Stock solution, 300 µL (1 mg/mL ACN), was added to a vial containing buffer (9.7 mL), mixed and pre-heated to 37 °C. 1 mL of the solution was introduced into an HPLC vial. Samples (10 µL) were injected and analysed at time intervals of t = 0 min, 5 min, 30 min, 60 min and hourly for 24 h. The analysis was performed in triplicate. (ii) Thermal stability: Compounds 33 and 39 (1 mL stock solution) were each placed in a vial for 4 h at 60 °C on a heating block. The sample was then cooled, diluted with acetonitrile and analysed by HPLC. (iii) Photostability study: Compounds 33 and 39 (stock solution, 1 mL) were placed in a vial, exposed to UV light for 4 h and then analysed by HPLC. (iv) Stability in acidic conditions: HCl (0.1 M, 0.2 mL) was added to stock solutions (0.8 mL) of 33 and 39 in a vial. The vial was vortexed and retained at room temperature. A sample was neutralised with NaOH (0.1 M, 0.2 mL) each hour for 4 h and then analysed by HPLC. (v) Stability of 33 and 39 in basic (alkaline) conditions: NaOH (0.1 M, 0.2 mL) was added to stock solution (0.8 mL) in a vial. The vial was vortexed and retained at room temperature. A sample was neutralised with HCl (0.1 M, 0.2 mL) every hour for 4 h then analysed by HPLC. (vi) Stability of 33 and 39 in oxidising conditions: H2O2 (3%, 0.2 mL) was added to the stock solution (0.8 mL). The vial was vortexed to obtain a homogeneous mixture and retained at room temperature, and a sample was analysed by HPLC every hour for 4 h.

Data set [3] can be described thus: Stability under degradation conditions (HPLC). Format: physicochemical. The protocol:
as §1, §2

As for `COc1ccc(C2C(F)C(=O)N2c2cc(OC)c(OC)c(OC)c2)cc1` (centres unmarked) [Compound 26, 3-Fluoro-4-(4-methoxyphenyl)-1-(3,4,5-trimethoxyphenyl)azetidin-2-one], in data set [1] (72 h), the viability at 1 µM was above 70% and the viability at 10 µM amounted to 40%. In data set [1], the IC50 – broadly, the concentration at which inhibition is half-maximal – amounted to 312 nM. The molecule also yielded a cells remaining in the data set on SW-480 cells of 58%.

As for `CCOc1ccc(C2C(F)C(=O)N2c2cc(OC)c(OC)c(OC)c2)cc1` (centres unmarked) [Compound 27, 4-(4-Ethoxyphenyl)-3-fluoro-1-(3,4,5-trimethoxyphenyl)azetidin-2-one], in data set [1] (72 h), the viability at 1 µM was above 70% and the viability at 10 µM worked out at 46%.

As for `COc1cc(N2C(=O)C(F)C2c2ccc(SC)cc2)cc(OC)c1OC` (centres unmarked) [Compound 28, 3-Fluoro-4-(4-(methylthio)phenyl)-1-(3,4,5-trimethoxyphenyl)azetidin-2-one], in data set [1] (72 h), the viability at 1 µM is above 70% and the viability at 10 µM worked out at 47%.

As to `CCSc1ccc(C2C(F)C(=O)N2c2cc(OC)c(OC)c(OC)c2)cc1` (centres unmarked) [Compound 29, 4-(4-(Ethylthio)phenyl)-3-fluoro-1-(3,4,5-trimethoxyphenyl)azetidin-2-one], in data set [1] (MCF-7, range over the two concentrations 1 and 10 μM, 72 h), the cell viability is on record as 68–90%. The cells remaining with SW-480 cells came to 60%.

With `CCSc1ccc(C2N(c3cc(OC)c(OC)c(OC)c3)C(=O)C2(F)F)cc1` (centres unmarked) [Compound 39, 4-(4-(Ethylthio)phenyl)-3,3-difluoro-1-(3,4,5-trimethoxyphenyl)azetidin-2-one], the share remaining (commonly what is left of the initial amount, in per cent) at 24 h, 0.03 mg/mL in data set [2] (phosphate buffer pH 4, 37 °C) is 39%; in data set [2] (phosphate buffer pH 7.4, 37 °C), 50%; in data set [2] (phosphate buffer pH 9, 37 °C), 19%. For the same molecule, in data set [2] (phosphate buffer, pH 11 (as printed in Table S7)), the fraction remaining at 0.03 mg/mL came to 19%. The share remaining at 4 h, 0.8 mg/mL is 54% in data set [3] (0.1 M HCl added to stock solution, acidic (0.1 M HCl)); 60% in data set [3] (0.1 M NaOH added to stock solution, alkaline (0.1M NaOH)); 50% in data set [3] (3% H2O2 added to stock solution, oxidative (3% H2O2)). Also, the amount remaining at 4 h, 1 mg/mL in data set [3] (stock solution in acetonitrile/water under UV light, UV light) amounted to 61%; in data set [3] (stock solution in acetonitrile/water, heated, heat (60 °C)), 82%.

Consider `COc1ccc(C2N(c3cc(OC)c(OC)c(OC)c3)C(=O)C2(F)F)cc1O` (centres unmarked) [Compound 42, 3,3-Difluoro-4-(3-hydroxy-4-methoxyphenyl)-1-(3,4,5-trimethoxyphenyl)azetidin-2-one], for which, in data set [1] (72 h), the viability at 1 µM worked out at 17% and the viability at 10 µM came to 37%. This molecule displayed an IC50 in data set [1] of 321 nM. Besides, the cells remaining in the data set with SW-480 cells is given as 56%.
